*1 amine or outer side, *2 acyl side, *3 side chain or, on linkers, in order; H or OH if unused. Where a SMILES comes first, the peptide text is derived from it. Side-chain parts run from the residue outwards. [ ]: non-standard residue; d: D form. The star is where a group is joined. C20 diacid = O=C(O)CCCCCCCCCCCCCCCCCCC(=O)*; C18 diacid = O=C(O)CCCCCCCCCCCCCCCCC(=O)*; γGlu = O=C(O)[C@H](CCC(=O)[*:2])N[*:1]; 4Pal = N[C@@H](Cc1ccncc1)C(=O)O; αMeL = CC(C)C[C@](C)(N)C(=O)O; AEEA = NCCOCCOCC(=O)O; Aib = CC(C)(N)C(=O)O

Common to all, as to assay: cAMP functional assay (HTRF) in HEK293 cells in presence of 0.1% casein
Type in all cases: cell-based
Background: Time-resolved FRET reads energy transfer from a long-lived donor to a nearby acceptor.

Experiment [1] has as its target T1, human GLP-1 receptor (GLP-1R) (Homo sapiens, UniProt P43220).
T1 construct: expressed in transfected cells; host or cells: HEK293
The following applies: HEK293 cells expressing human GLP-1R, geometric mean, read-out: hGLP1R cAMP Rel EC50 nM (SEM, n).

Experiment [2] has as its target T2, human glucose-dependent insulinotropic peptide receptor (GIPR) (Homo sapiens, UniProt P48546).
T2 construct: expressed in transfected cells; host or cells: HEK293
T2 sequence (P48546 22-466): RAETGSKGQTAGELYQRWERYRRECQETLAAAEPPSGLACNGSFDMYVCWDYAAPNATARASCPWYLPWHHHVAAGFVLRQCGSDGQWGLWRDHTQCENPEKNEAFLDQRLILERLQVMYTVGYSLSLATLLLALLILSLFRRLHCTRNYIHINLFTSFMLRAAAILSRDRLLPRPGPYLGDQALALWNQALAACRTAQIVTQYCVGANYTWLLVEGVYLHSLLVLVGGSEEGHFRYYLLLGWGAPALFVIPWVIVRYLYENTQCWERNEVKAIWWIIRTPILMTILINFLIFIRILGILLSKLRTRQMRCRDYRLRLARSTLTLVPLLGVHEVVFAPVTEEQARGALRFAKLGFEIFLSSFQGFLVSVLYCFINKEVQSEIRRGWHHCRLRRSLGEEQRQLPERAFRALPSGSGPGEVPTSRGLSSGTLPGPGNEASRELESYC
The following applies: HEK293 cells expressing human GIPR, geometric mean, read-out: hGIPR cAMP Rel EC50 nM (SEM, n).

For experiment [3], the target named is T3, human glucagon receptor (GcgR) (Homo sapiens, UniProt P47871).
T3 construct: expressed in transfected cells; host or cells: HEK293
The settings on record: HEK293 cells expressing human GcgR, geometric mean, read-out: hGcgR cAMP Rel EC50 nM (SEM, n).

T3 sequence (P47871 26-477): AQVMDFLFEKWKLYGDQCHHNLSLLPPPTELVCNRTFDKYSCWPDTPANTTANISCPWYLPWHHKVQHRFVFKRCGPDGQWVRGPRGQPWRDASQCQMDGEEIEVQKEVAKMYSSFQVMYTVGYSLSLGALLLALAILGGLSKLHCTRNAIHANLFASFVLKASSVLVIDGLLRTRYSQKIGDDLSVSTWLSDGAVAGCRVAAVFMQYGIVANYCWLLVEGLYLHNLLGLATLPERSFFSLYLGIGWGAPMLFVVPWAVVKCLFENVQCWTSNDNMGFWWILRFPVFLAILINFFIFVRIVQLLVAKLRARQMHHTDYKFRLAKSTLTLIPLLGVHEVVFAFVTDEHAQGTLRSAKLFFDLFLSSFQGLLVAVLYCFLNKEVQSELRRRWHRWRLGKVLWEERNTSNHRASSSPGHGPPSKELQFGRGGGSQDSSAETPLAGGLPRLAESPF
T1 sequence (P43220 24-463): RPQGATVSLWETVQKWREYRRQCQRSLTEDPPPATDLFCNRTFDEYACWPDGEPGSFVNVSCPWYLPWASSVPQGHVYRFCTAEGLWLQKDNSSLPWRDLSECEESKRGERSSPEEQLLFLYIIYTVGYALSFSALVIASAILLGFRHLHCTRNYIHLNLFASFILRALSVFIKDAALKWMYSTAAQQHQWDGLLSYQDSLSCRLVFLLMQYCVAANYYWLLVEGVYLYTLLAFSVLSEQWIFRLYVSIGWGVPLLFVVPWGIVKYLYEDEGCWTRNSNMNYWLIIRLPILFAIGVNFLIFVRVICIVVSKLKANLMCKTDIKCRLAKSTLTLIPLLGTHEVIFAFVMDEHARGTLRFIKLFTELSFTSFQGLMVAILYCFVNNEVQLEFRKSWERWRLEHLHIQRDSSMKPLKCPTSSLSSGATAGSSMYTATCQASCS

Broadly, the EC50 is the concentration needed to bring the measured effect to its halfway point. `CC[C@H](C)[C@H](NC(=O)[C@H](CC(C)C)NC(=O)[C@@H](NC(=O)CNC(=O)[C@H](CCC(=O)O)NC(=O)C(C)(C)NC(=O)[C@@H](N)Cc1ccc(O)cc1)[C@@H](C)O)C(=O)N[C@@H](CO)C(=O)N[C@@H](CC(=O)O)C(=O)N[C@@H](Cc1ccc(O)cc1)C(=O)N[C@@H](CO)C(=O)N[C@H](C(=O)N[C@@](C)(CC(C)C)C(=O)N[C@@H](CC(C)C)C(=O)N[C@@H](CC(=O)O)C(=O)N[C@@H](CCCCN)C(=O)N[C@@H](CCCCNC(=O)COCCOCCNC(=O)COCCOCCNC(=O)CC[C@H](NC(=O)CCCCCCCCCCCCCCCCCCC(=O)O)C(=O)O)C(=O)N[C@@H](Cc1c[nH]cn1)C(=O)N[C@@H](CCC(N)=O)C(=O)NC(C)(C)C(=O)N[C@@H](CCC(=O)O)C(=O)N[C@@H](Cc1ccccc1)C(=O)N[C@H](C(=O)N[C@@H](CCC(=O)O)C(=O)N[C@@H](Cc1ccc(O)cc1)C(=O)N[C@@H](CC(C)C)C(=O)N[C@@H](CC(C)C)C(=O)N[C@@H](CCC(=O)O)C(=O)NCC(=O)NCC(=O)N1CCC[C@H]1C(=O)N[C@@H](CO)C(=O)N[C@@H](CO)C(=O)NCC(=O)N[C@@H](C)C(=O)N1CCC[C@H]1C(=O)N1CCC[C@H]1C(=O)N1CCC[C@H]1C(=O)N[C@@H](CO)C(N)=O)C(C)C)[C@@H](C)CC` [Example 73] (H-Y[Aib]EGTLISDYSI[αMeL]LDKK([AEEA-AEEA-γGlu-C20 diacid])HQ[Aib]EFVEYLLEGGPSSGAPPPS-NH2): the EC50 in experiment [1] was above 5000 nM; in experiment [2], 0.0151 nM; in experiment [3], above 5000 nM.
With `CC[C@H](C)[C@H](NC(=O)[C@H](CCCCN)NC(=O)[C@H](CC(=O)O)NC(=O)[C@H](CC(C)C)NC(=O)[C@H](CC(C)C)NC(=O)[C@@H](NC(=O)[C@H](CO)NC(=O)[C@H](Cc1ccc(O)cc1)NC(=O)[C@H](CC(=O)O)NC(=O)[C@H](CO)NC(=O)[C@@H](NC(=O)[C@H](Cc1ccccc1)NC(=O)[C@@H](NC(=O)CNC(=O)[C@H](CCC(=O)O)NC(=O)[C@@H](C)NC(=O)[C@@H](N)Cc1ccc(O)cc1)[C@@H](C)O)[C@@H](C)CC)[C@@H](C)CC)C(=O)N[C@@H](C)C(=O)N[C@@H](CCC(N)=O)C(=O)NC(C)(C)C(=O)N[C@@H](CC(=O)O)C(=O)N[C@@H](Cc1ccccc1)C(=O)N[C@H](C(=O)N[C@@H](CC(N)=O)C(=O)N[C@@H](Cc1c[nH]c2ccccc12)C(=O)N[C@@H](CCCCNC(=O)COCCOCCNC(=O)COCCOCCNC(=O)CC[C@H](NC(=O)CCCCCCCCCCCCCCCCC(=O)O)C(=O)O)C(=O)N[C@@H](CC(C)C)C(=O)N[C@@H](C)C(=O)N[C@@H](CCC(N)=O)C(=O)NCC(=O)N1CCC[C@H]1C(=O)N[C@@H](CO)C(=O)N[C@@H](CO)C(=O)NCC(=O)N[C@@H](C)C(=O)N1CCC[C@H]1C(=O)N1CCC[C@H]1C(=O)N1CCC[C@H]1C(=O)N[C@@H](CO)C(N)=O)C(C)C` [Example 93] (H-Y[dA]EGTFISDYSILLDKIAQ[Aib]DFVNWK([AEEA-AEEA-γGlu-C18 diacid])LAQGPSSGAPPPS-NH2), the 50% effective concentration (EC50) in experiment [1] is 884 nM; in experiment [2], 0.00482 nM; in experiment [3] it was above 5000 nM.
The corresponding values for `CC[C@H](C)[C@H](NC(=O)[C@H](CC(C)C)NC(=O)[C@@H](NC(=O)CNC(=O)[C@H](CCC(=O)O)NC(=O)C(C)(C)NC(=O)[C@@H](N)Cc1ccc(O)cc1)[C@@H](C)O)C(=O)N[C@@H](CO)C(=O)N[C@@H](CC(=O)O)C(=O)N[C@@H](Cc1ccc(O)cc1)C(=O)N[C@@H](CO)C(=O)N[C@H](C(=O)N[C@@](C)(CC(C)C)C(=O)N[C@@H](CC(C)C)C(=O)N[C@@H](CC(=O)O)C(=O)N[C@@H](CCCCN)C(=O)N[C@@H](CCCCNC(=O)COCCOCCNC(=O)COCCOCCNC(=O)CC[C@H](NC(=O)CCCCCCCCCCCCCCCCCCC(=O)O)C(=O)O)C(=O)N[C@@H](Cc1c[nH]cn1)C(=O)N[C@@H](CCC(N)=O)C(=O)NC(C)(C)C(=O)N[C@@H](CC(=O)O)C(=O)N[C@@H](Cc1ccccc1)C(=O)N[C@H](C(=O)N[C@@H](CCC(=O)O)C(=O)N[C@@H](Cc1ccncc1)C(=O)N[C@@H](CC(C)C)C(=O)N[C@@H](CC(C)C)C(=O)N[C@@H](CCC(=O)O)C(=O)N[C@@H](C)C(=O)NCC(=O)N1CCC[C@H]1C(=O)N[C@@H](CO)C(=O)N[C@@H](CO)C(=O)NCC(=O)N[C@@H](C)C(=O)N1CCC[C@H]1C(=O)N1CCC[C@H]1C(=O)N1CCC[C@H]1C(=O)N[C@@H](CO)C(N)=O)C(C)C)[C@@H](C)CC` [Example 89] (H-Y[Aib]EGTLISDYSI[αMeL]LDKK([AEEA-AEEA-γGlu-C20 diacid])HQ[Aib]DFVE[4Pal]LLEAGPSSGAPPPS-NH2) are above 5000 nM, 0.00687 nM and above 5000 nM.
The corresponding values for `CC[C@H](C)[C@H](NC(=O)[C@H](Cc1ccccc1)NC(=O)[C@@H](NC(=O)CNC(=O)[C@H](CCC(=O)O)NC(=O)C(C)(C)NC(=O)[C@@H](N)Cc1ccc(O)cc1)[C@@H](C)O)C(=O)N[C@@H](CO)C(=O)N[C@@H](CC(=O)O)C(=O)N[C@@H](Cc1ccc(O)cc1)C(=O)N[C@@H](CO)C(=O)N[C@H](C(=O)NC(C)(C)C(=O)N[C@@H](CC(C)C)C(=O)N[C@@H](CC(=O)O)C(=O)N[C@@H](CCCCN)C(=O)N[C@@H](CCCCNC(=O)COCCOCCNC(=O)COCCOCCNC(=O)CC[C@H](NC(=O)CCCCCCCCCCCCCCCCC(=O)O)C(=O)O)C(=O)N[C@@H](Cc1c[nH]cn1)C(=O)N[C@@H](CCC(N)=O)C(=O)NC(C)(C)C(=O)N[C@@H](CC(=O)O)C(=O)N[C@@H](Cc1ccccc1)C(=O)N[C@H](C(=O)N[C@@H](CCC(=O)O)C(=O)N[C@@H](Cc1ccncc1)C(=O)N[C@@H](CC(C)C)C(=O)N[C@@H](CC(C)C)C(=O)N[C@@H](C)C(=O)NCC(=O)NCC(=O)N1CCC[C@H]1C(=O)N[C@@H](CO)C(=O)N[C@@H](CO)C(=O)NCC(=O)N[C@@H](C)C(=O)N1CCC[C@H]1C(=O)N1CCC[C@H]1C(=O)N1CCC[C@H]1C(=O)N[C@@H](CO)C(N)=O)C(C)C)[C@@H](C)CC` [Example 24] are above 5000 nM, 0.0699 nM and above 5000 nM.
The corresponding values for `CC[C@H](C)[C@H](NC(=O)[C@H](CO)NC(=O)[C@H](Cc1ccc(O)cc1)NC(=O)[C@H](CC(=O)O)NC(=O)[C@H](CO)NC(=O)[C@@H](NC(=O)[C@H](Cc1ccccc1)NC(=O)[C@@H](NC(=O)CNC(=O)[C@H](CCC(=O)O)NC(=O)C(C)(C)NC(=O)[C@@H](N)Cc1ccc(O)cc1)[C@@H](C)O)[C@@H](C)CC)C(=O)N[C@@H](C)C(=O)N[C@@H](CC(C)C)C(=O)N[C@@H](CC(=O)O)C(=O)N[C@@H](CCCCN)C(=O)N[C@@H](CCCCNC(=O)COCCOCCNC(=O)COCCOCCNC(=O)CC[C@H](NC(=O)CCCCCCCCCCCCCCCCC(=O)O)C(=O)O)C(=O)N[C@@H](Cc1c[nH]cn1)C(=O)N[C@@H](CCC(N)=O)C(=O)NC(C)(C)C(=O)N[C@@H](CC(=O)O)C(=O)N[C@@H](Cc1ccccc1)C(=O)N[C@H](C(=O)N[C@@H](CCC(=O)O)C(=O)N[C@@H](Cc1ccncc1)C(=O)N[C@@H](CC(C)C)C(=O)N[C@@H](CC(C)C)C(=O)N[C@@H](C)C(=O)NCC(=O)NCC(=O)N1CCC[C@H]1C(=O)N[C@@H](CO)C(=O)N[C@@H](CO)C(=O)NCC(=O)N[C@@H](C)C(=O)N1CCC[C@H]1C(=O)N1CCC[C@H]1C(=O)N1CCC[C@H]1C(=O)N[C@@H](CO)C(N)=O)C(C)C` [Example 21] (H-Y[Aib]EGTFISDYSIALDKK([AEEA-AEEA-γGlu-C18 diacid])HQ[Aib]DFVE[4Pal]LLAGGPSSGAPPPS-NH2) are above 5000 nM, 0.291 nM and above 5000 nM.
